This note sets out measurements from patent US20200190062A1, “HETEROCYCLIC COMPOUND AND PHARMACEUTICAL COMPOSITION COMPRISING SAME” (BEYONDBIO INC., priority 2015, published 2020).

Holding throughout (assay): Inhibition of cancer cell proliferation (MTT)
Holding throughout (assay type): cell-based, human

For one test, the system named is T98G. The protocol:
(§1) A test was conducted to confirm whether the compounds obtained in the above Examples can inhibit proliferation of human colon carcinoma cell line HCT116, glioblastoma cell lines U-87MG and T98G, neuroblastoma cell lines SH-SYSY and SK-N-SH, and lung cancer cell lines A549 and NCI-H23.
(§2) HCT116, U-87MG, SH-SYSY, SK-N-SH and A549 cells were culured in DMEM medium containing 10% FBS. T98G cells were cultured in MEM medium containing 10% FBS and NCI-H23 cells were cultured in […] medium containing 10% FBS. In order to analyze an inhibition of proliferation, HCT116 cells were dispensed in 2000 cells/well into 96 well plate, and SH-SYSY, SK-N-SH, U-87MG, T98G, A549, and NCI-H23 cells were dispensed in 3000 cells/well into 96 well plate. And then, the cells were cultured at 5% CO2 and 37° C. for 16 hrs to allow the cells to attach to the wells. The compounds of the above Examples were added to each well at a concentration of 0.004, 0.013, 0.04, 0.12, 0.37, 1.1, 3.3, and 10 uM, and the culture volume was adjusted to 100 ul. A control group was treated with dimethylsulfoxide (DMSO) at the same concentration, 0.08%, as used to treat the test compounds. Afterwards, cells were cultured at 5% CO2 and 37° C. for 72 hrs. And then, 10 ul of the solution of MTT (3-(4,5-dimethylthiazol-2-yl)-2,5-diphenyltetrazolium bromide) dissolved in PBS at 5 mg/ml was added to each well to identify viable cells and the cells were cultured for further 2 hrs. The culture solution was removed, 100 ul of DMSO was added to dissolve the formed formazan and then an absorbance was measured at 535 nm. Based on the absorbance of the control cells not treated with the compounds, the amounts of the viable cells according to the concentration of the compounds were calculated. GI50 (growth inhibition 50) value which is the concentration of the compound to inhibit cancer cell proliferation by 50% was calculated using Graphpad Prism 5.0 program.

A further test has as its system NCI-H23. The protocol: as §1, §2
For a further test, the system named is HCT116. As for the experimental part:
as §1, §2

The test system of another test is U-87MG. The protocol:
as §1, §2

A further test relates to A549. As for the experimental part:
as §1, §2

Structures can show the parent of a compound that is named as a salt.

With `CC(C)N1CCCC(c2cc(-c3nc(-c4ccnc(N)c4F)ccc3O)nc(N)n2)C1` (stereo not shown) [Example 41, 2′-amino-6-(2-amino-6-(1-isopropylpiperidin-3-yl)pyrimidin-4-yl)-3′-fluoro-[2,4′-bipyridin]-5-ol], the GI50 in the test with T98G (Homo sapiens, T98G, 72 h) was 110 nM; in the test on NCI-H23 (Homo sapiens, NCI-H23, 72 h), 70 nM; in the test with HCT116 (Homo sapiens, HCT-116, 72 h), 20 nM; in the test on U-87MG (Homo sapiens, U-87 MG, 72 h), 40 nM; with A549 (Homo sapiens, A549, 72 h), 40 nM.
As to `CC(C)c1cnc(N)nc1-c1nc(-c2ccnc(N)c2F)ccc1O` [Example 58], the GI50 amounted to 40 nM in the test on T98G (Homo sapiens, T98G, 72 h); 60 nM with NCI-H23 (Homo sapiens, NCI-H23, 72 h); 30 nM in the test with HCT116 (Homo sapiens, HCT-116, 72 h); 60 nM with U-87MG (Homo sapiens, U-87 MG, 72 h); 70 nM in the test with A549 (Homo sapiens, A549, 72 h).
As to `CCCN1CCCC(c2cc(-c3nc(-c4ccnc(N)c4F)ccc3O)nc(N)n2)C1` (stereo not shown) [Example 40, 2′-amino-6-(2-amino-6-(1-propylpiperidin-3-yl)pyrimidin-4-yl)-3′-fluoro-[2,4′-bipyridin]-5-ol], the GI50 was found to be 50 nM in the test with T98G (Homo sapiens, T98G, 72 h); 30 nM with NCI-H23 (Homo sapiens, NCI-H23, 72 h); 10 nM with HCT116 (Homo sapiens, HCT-116, 72 h); 20 nM with U-87MG (Homo sapiens, U-87 MG, 72 h); 10 nM in the test with A549 (72 hrs).
Turning to `Cc1cnc(N)nc1-c1nc(-c2ccnc(N)c2F)ccc1O` [Example 100, 2′-amino-6-(2-amino-5-methylpyrimidin-4-yl)-3′-fluoro-[2,4′-bipyridin]-5-ol 3hydrochloride], the GI50 in the test on T98G (72 hrs) worked out at 50 nM; in the test on NCI-H23 (72 hrs), 70 nM; in the test on HCT116 (72 hrs), 30 nM; in the test with U-87MG (72 hrs), 60 nM; in the test on A549 (72 hrs), 70 nM.
As to `CCc1cnc(N)nc1-c1nc(-c2ccnc(N)c2F)ccc1O` [Example 56, 2′-amino-6-(2-amino-5-ethylpyrimidin-4-yl)-3′-fluoro-[2,4′-bipyridin]-5-ol], the GI50 in the test on T98G (72 hrs) came out at 130 nM; with NCI-H23 (72 hrs), 90 nM; in the test with HCT116 (72 hrs), 30 nM; in the test with U-87MG (Homo sapiens, U-87 MG, 72 h), 60 nM; in the test on A549 (Homo sapiens, A549, 72 h) it was 80 nM.
Take `CNc1nc(-c2nc(-c3ccnc(N)c3F)ccc2O)cc(C2CCN(C)CC2)n1` [Example 59, 2′-amino-3′-fluoro-6-(2-(methylamino)-6-(1-methylpiperidin-4-yl)pyrimidin-4-yl)-[2,4′-bipyridin]-5-ol]: the GI50 with T98G (Homo sapiens, T98G, 72 h) was determined as 110 nM; in the test on NCI-H23 (Homo sapiens, NCI-H23, 72 h) it was 130 nM; with HCT116 (Homo sapiens, HCT-116, 72 h) it was 40 nM; with U-87MG (Homo sapiens, U-87 MG, 72 h), 70 nM; in the test on A549 (Homo sapiens, A549, 72 h), 70 nM.
For `Nc1nc(-c2nc(-c3ccnc(N)c3F)ccc2O)cc(C2CCOCC2)n1` [Example 85, 2′-amino-6-(2-amino-6-(tetrahydro-2H-pyran-4-yl)pyrimidin-4-yl)-3′-fluoro-[2,4′-bipyridin]-5-ol 3hydrochloride], the concentration for 50% growth inhibition (GI50) with T98G (72 hrs) was found to be 90 nM; in the test on NCI-H23 (72 hrs), 140 nM; with HCT116 (72 hrs), 20 nM; in the test with U-87MG (72 hrs), 70 nM; in the test with A549 (72 hrs) it was 60 nM.
As for `CCN1CCC(c2cc(-c3nc(-c4ccnc(N)c4F)ccc3O)nc(N)n2)CC1` [Example 35, 2′-amino-6-(2-amino-6-(1-ethylpiperidin-4-yl)pyrimidin-4-yl)-3′-fluoro-[2,4′-bipyridin]-5-ol], the GI50 in the test with T98G (Homo sapiens, T98G, 72 h) was determined as 210 nM; with NCI-H23 (Homo sapiens, NCI-H23, 72 h), 60 nM; with HCT116 (Homo sapiens, HCT-116, 72 h) it was 10 nM; in the test on U-87MG (Homo sapiens, U-87 MG, 72 h) it was 30 nM; with A549 (Homo sapiens, A549, 72 h), 20 nM.
Consider `CCCc1cnc(N)nc1-c1nc(-c2ccnc(N)c2F)ccc1O` [Example 57, 2′-amino-6-(2-amino-5-propylpyrimidin-4-yl)-3′-fluoro-[2,4′-bipyridin]-5-ol], for which the GI50 in the test with T98G (72 hrs) came to 60 nM; with NCI-H23 (Homo sapiens, NCI-H23, 72 h), 40 nM; in the test with HCT116 (Homo sapiens, HCT-116, 72 h), 20 nM; with U-87MG (Homo sapiens, U-87 MG, 72 h), 20 nM; with A549 (72 hrs), 40 nM.
With `CCCN1CCC(c2cc(-c3nc(-c4ccnc(N)c4F)ccc3O)nc(N)n2)CC1` [Example 87, 2′-amino-6-(2-amino-6-(1-propylpiperidin-4-yl)pyrimidin-4-yl)-3′-fluoro-[2,4′-bipyridin]-5-ol 4hydrochloride], the GI50 in the test on T98G (72 hrs) came to 20 nM; with NCI-H23 (72 hrs) it was 40 nM; in the test with HCT116 (72 hrs), 3 nM; in the test on U-87MG (72 hrs) it was 10 nM; with A549 (72 hrs), 10 nM.
As for `Cc1c(-c2nc(-c3ccnc(N)c3F)ccc2O)nc(N)nc1C1CCN(C(C)C)CC1` [Example 96, 2′-amino-6-(2-amino-6-(1-isopropylpiperidin-4-yl)-5-methylpyrimidin-4-yl)-3′-fluoro-[2,4′-bipyridin]-5-ol 4hydrochloride], the GI50 in the test with T98G (72 hrs) is 190 nM; in the test with NCI-H23 (72 hrs) it was 210 nM; in the test on HCT116 (72 hrs) it was 60 nM; in the test on U-87MG (72 hrs), 80 nM; with A549 (72 hrs), 130 nM.
For `Nc1nc(-c2nc(-c3ccnc(N)c3F)ccc2O)cc(C2CCNCC2)n1` [Example 83, 2′-amino-6-(2-amino-6-(piperidin-4-yl)pyrimidin-4-yl)-3′-fluoro-[2,4′-bipyridin]-5-ol 4hydrochloride], the GI50 was found to be 150 nM in the test with T98G (72 hrs); 1180 nM in the test on NCI-H23 (72 hrs); 30 nM in the test on HCT116 (72 hrs); 90 nM in the test on U-87MG (72 hrs); 120 nM with A549 (72 hrs).
Regarding `CCN1CCC(c2cc(-c3nc(-c4ccnc(N)c4F)ccc3O)nc(N)n2)CC1` [Example 86, 2′-amino-6-(2-amino-6-(1-ethylpiperidin-4-yl)pyrimidin-4-yl)-3′-fluoro-[2,4′-bipyridin]-5-ol 4hydrochloride], the GI50 was 190 nM in the test on T98G (72 hrs); 50 nM in the test on NCI-H23 (72 hrs); 10 nM in the test with HCT116 (72 hrs); 30 nM with U-87MG (72 hrs); 20 nM with A549 (72 hrs).
As to `CCCc1c(-c2nc(-c3ccnc(N)c3F)ccc2O)nc(N)nc1C1CCN(C(C)C)CC1` [Example 50, 2′-amino-6-(2-amino-6-(1-isopropylpiperidin-4-yl)-5-propylpyrimidin-4-yl)-3′-fluoro-[2,4′-bipyridin]-5-ol], the GI50 in the test with T98G (Homo sapiens, T98G, 72 h) was 130 nM; in the test with NCI-H23 (Homo sapiens, NCI-H23, 72 h), 160 nM; with HCT116 (Homo sapiens, HCT-116, 72 h), 40 nM; in the test on U-87MG (Homo sapiens, U-87 MG, 72 h), 70 nM; with A549 (72 hrs), 150 nM.
Take `CCN1CCCC(c2cc(-c3nc(-c4ccnc(N)c4F)ccc3O)nc(N)n2)C1` (stereo not shown) [Example 39, 2′-amino-6-(2-amino-6-(1-ethylpiperidin-3-yl)pyrimidin-4-yl)-3′-fluoro-[2,4′-bipyridin]-5-ol]: the GI50 with T98G (72 hrs) worked out at 690 nM; in the test on NCI-H23 (72 hrs), 1790 nM; with HCT116 (72 hrs), 170 nM; in the test with U-87MG (72 hrs) it was 390 nM; with A549 (72 hrs) it was 400 nM.
On the same counts, the results for `CCCN1CCC(c2nc(N)nc(-c3nc(-c4ccnc(N)c4F)ccc3O)c2C)CC1` [Example 95, 2′-amino-6-(2-amino-5-methyl-6-(1-propylpiperidin-4-yl)pyrimidin-4-yl)-3′-fluoro-[2,4′-bipyridin]-5-ol 4hydrochloride] are 160 nM, 150 nM, 60 nM, 100 nM and 80 nM.
Take `CCc1c(-c2nc(-c3ccnc(N)c3F)ccc2O)nc(N)nc1C1CCN(C(C)C)CC1` [Example 49, 2′-amino-6-(2-amino-5-ethyl-6-(1-isopropylpiperidin-4-yl)pyrimidin-4-yl)-3′-fluoro-[2,4′-bipyridin]-5-ol]: the GI50 with T98G (Homo sapiens, T98G, 72 h) was 50 nM; in the test on NCI-H23 (Homo sapiens, NCI-H23, 72 h), 70 nM; in the test on HCT116 (Homo sapiens, HCT-116, 72 h) it was 20 nM; with U-87MG (Homo sapiens, U-87 MG, 72 h), 30 nM; in the test on A549 (Homo sapiens, A549, 72 h), 50 nM.

The GI50 is the concentration giving 50% growth inhibition. Low values mean more potent growth inhibition, high ones less potent growth inhibition.
